The subject of one test is sperm. Briefly: sperm motility in vitro. The following applies: sperm of WT and mutant mice, clofibric acid in media (2 mM elsewhere in the source). Format: cell-based, mouse. The source says: We observed spermatozoa after clofibrate treatment represent cells that were able to escape the inhibition of clofibric acid, most likely due to very fast clearance and fluctuating levels in rodents. This allows some tubular cells to complete the developmental cycle. Therefore, we measured sperm concentration as an indicator of efficiency of the pharmacological block and to be able to determine the concentration that results in effective sterility. We analyzed testicular morphology, sperm production, sperm motility and sperm function in in vitro fertilization after feeding these animals with the lipid lowering drug clofibrate. We tested an acute inhibition of sperm motility and function in vitro by incubating sperm from the engineered mice (mGus−/−, mT1R3−/−, hmT1R3+) in solutions containing clofibric acid or other T1R3 inhibitors. The concentration used was similar to the one used in human treatment with fibrates (˜0.03 g/kg weight, for 3 weeks). We tested sperm motility and function in vitro of the Gα-gustducin KO mice (missing only the Gα-gustducin gene (mGus−/−)) after blocking T1R3 receptors with the rodent specific inhibitor gurmarin (3 mg/ml).
We evaluated the residual sperm that was produced by the line 7c mice in more detail. […] From all the above results, the combined lack of T1R3 and α-gustducin exerted its effect primarily at the level of developing spermatocytes in testis.

The target in test [1] is T1, human T1R3 receptor (Homo sapiens, UniProt Q7RTX0).
T1 construct: expressed in transfected cells
T1 sequence (Q7RTX0 21-852): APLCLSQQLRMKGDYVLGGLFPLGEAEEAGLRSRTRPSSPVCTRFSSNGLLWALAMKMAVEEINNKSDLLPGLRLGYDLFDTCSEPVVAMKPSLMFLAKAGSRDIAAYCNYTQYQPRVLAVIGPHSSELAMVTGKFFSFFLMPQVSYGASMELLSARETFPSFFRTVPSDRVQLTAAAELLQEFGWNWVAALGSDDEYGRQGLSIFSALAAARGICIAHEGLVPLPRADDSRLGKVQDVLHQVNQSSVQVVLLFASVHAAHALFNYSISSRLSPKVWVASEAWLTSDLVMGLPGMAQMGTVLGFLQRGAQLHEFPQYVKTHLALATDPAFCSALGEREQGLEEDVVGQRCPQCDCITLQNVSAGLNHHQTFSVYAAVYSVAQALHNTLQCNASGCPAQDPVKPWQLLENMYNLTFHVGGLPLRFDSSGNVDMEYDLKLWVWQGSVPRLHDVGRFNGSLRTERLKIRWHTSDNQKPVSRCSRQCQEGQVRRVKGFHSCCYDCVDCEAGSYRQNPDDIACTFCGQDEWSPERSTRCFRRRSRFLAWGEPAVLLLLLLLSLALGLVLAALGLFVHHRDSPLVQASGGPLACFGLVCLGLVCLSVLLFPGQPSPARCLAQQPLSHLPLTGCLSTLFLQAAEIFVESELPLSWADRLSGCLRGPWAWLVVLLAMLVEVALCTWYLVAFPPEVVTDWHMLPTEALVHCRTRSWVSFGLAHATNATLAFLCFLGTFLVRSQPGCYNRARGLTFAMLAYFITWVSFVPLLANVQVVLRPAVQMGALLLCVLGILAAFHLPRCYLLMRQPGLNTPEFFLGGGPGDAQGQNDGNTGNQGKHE
T1 sequence (Q8TE23 20-839 partner): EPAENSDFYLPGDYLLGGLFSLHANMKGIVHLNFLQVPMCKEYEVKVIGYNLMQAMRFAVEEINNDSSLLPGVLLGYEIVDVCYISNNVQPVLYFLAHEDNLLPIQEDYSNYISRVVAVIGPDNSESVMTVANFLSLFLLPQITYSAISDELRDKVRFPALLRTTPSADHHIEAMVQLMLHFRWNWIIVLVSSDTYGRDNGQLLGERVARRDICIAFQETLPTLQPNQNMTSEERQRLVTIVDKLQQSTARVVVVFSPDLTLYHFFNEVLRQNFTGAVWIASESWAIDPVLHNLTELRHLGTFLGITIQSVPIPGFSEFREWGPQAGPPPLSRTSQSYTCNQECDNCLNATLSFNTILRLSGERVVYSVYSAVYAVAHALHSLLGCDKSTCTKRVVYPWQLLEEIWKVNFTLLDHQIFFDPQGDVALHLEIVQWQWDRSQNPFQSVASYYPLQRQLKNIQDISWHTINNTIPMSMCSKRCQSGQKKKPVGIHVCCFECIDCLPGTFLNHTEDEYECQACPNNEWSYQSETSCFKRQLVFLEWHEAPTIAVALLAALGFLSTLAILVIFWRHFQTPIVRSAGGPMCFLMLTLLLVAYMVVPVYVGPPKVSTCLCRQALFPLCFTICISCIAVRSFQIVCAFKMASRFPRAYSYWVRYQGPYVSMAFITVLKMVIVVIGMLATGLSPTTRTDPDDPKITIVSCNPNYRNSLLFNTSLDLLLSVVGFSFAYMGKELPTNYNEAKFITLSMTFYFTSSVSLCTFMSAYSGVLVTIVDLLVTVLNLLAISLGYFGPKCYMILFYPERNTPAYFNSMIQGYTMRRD
Briefly: sweet receptor inhibition assay (receptor activated with 2.5 mM sucralose). Format: cell-based. As to the method: FIG. 1 is a bar graph showing human (h), mouse (m) and chimeric mouse/human (m/h) sweet receptors activated with 2.5 mM sucralose and assayed for inhibition by certain T1R3 inhibitors or controls, measured by DF/F in %.
Chimeric receptors of T1R3 contained the extracellular portion of human or mouse receptor and the transmembrane domain and C-terminal domain from mouse or human receptor: mh indicates the presence of the mouse extracellular domain and human transmembrane domain; hm indicates the presence of the human extracellular domain and mouse transmembrane domain.

In test [2] the target is T1, human T1R3 receptor. Particulars: cited from earlier work.

Each structure is given as a SMILES string. Entries after “also recorded” stand apart in the source; their conditions may differ. Where two headings read alike, the source gives them in different places.

For `CC(C)(Oc1ccc(Cl)cc1)C(=O)O` [clofibric acid], in the test on sperm, the sperm motility entry was “no differences; also recorded: not affected”. Further, the IC50 came to 28 µM on human T1R3 receptor [1] (read-out: IC50, block of the T1R3 receptor) and 0.028 µM on human T1R3 receptor [1] (read-out: IC50 values, human T1R3 inhibitors). Besides, on human T1R3 receptor [2], the “T1R3 inhibition compared with PPAR-α activation” value is reported as “comparable to their activation of PPAR-α”.

In general, IC50 refers to the concentration needed to halve the response being measured.

The record behind these values is US20150045610A1, “METHOD OF MODIFYING SPERMATOGENESIS, SPERMIOGENESIS AND/OR FERTILITY IN MAMMALS” (Monell Chemical Senses Center, priority 2012, published 2015).
